According to patent publication US8846933B2, “N-link hydroxamic acid derivatives useful as antibacterial agents” (Pfizer Inc., priority 2009, dated 2014):

What was measured:
Type in all cases: cell-based
[1] = test system: Acinetobacter baumanii/haemolyticus: Multidrug-resistant clinical isolate (AB-3167); assay: MIC determination (CLSI), strain AB-3167; conditions: unit assumed
Experimental: The in vitro antibacterial activity of compounds described in the Examples was evaluated by minimum inhibitory concentration (MIC) testing according to Clinical and Laboratory Standards Institute (CLSI, formerly NCCLS) guidelines. See: Clinical and Laboratory Standards Institute. Methods for Dilution Antimicrobial Susceptibility Tests for Bacteria that Grow Aerobically; Approved Standard-Seventh Edition. CLSI document M7-A7 [ISBN 1-56238-587-9]. Clinical and Laboratory Standards Institute, 940 West Valley Road, Suite 1400, Wayne, Pa. 19087-1898 USA, 2006; also Clinical and Laboratory Standards Institute. Performance Standards for Antimicrobial Susceptibility Testing; Eighteenth Informational Supplement. CLSI document M100-S18 [ISBN1-56238-653-0].Clinical and Laboratory Standards Institute.
The following bacterial strains were used in these MIC determinations:
2) Acinetobacter baumanii/haemolyticus: Multidrug-resistant clinical isolate labeled as AB-3167 in Tables 4 and 5;

[2] = test system: Escherichia coli EC-1: VOGEL, mouse virulent; assay: MIC determination (CLSI), strain EC-1; conditions: Escherichia coli EC-1, VOGEL, mouse virulent; unit assumed
Procedure, shortened: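 The mouse-virulent VOGEL isolate of E. coli, EC-1, served as test organism. Minimum inhibitory concentration was measured by CLSI dilution methodology (M7-A7; M100-S18 standards).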

[3] = test system: Pseudomonas aeruginosa UI-18: Wild-type (PA-7); assay: MIC determination (CLSI), strain PA-7; conditions: Pseudomonas aeruginosa UI-18, wild-type; unit assumed
Procedure, shortened: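 MIC determined by broth dilution per CLSI M7-A7 guidelines with M100-S18 interpretive standards. Test organism: wild-type Pseudomonas aeruginosa UI-18, designated PA-7.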

Row | Structure (SMILES) | AB-3167 (MIC) [1] [µg/mL] | EC-1 (MIC) [2] [µg/mL] | PA-7 (MIC) [3] [µg/mL]
1 | C[C@@](CCn1ccc(/C=C/c2ccccc2)cc1=O)(C(=O)NO)S(C)(=O)=O [Example 2, (2R)-N-hydroxy-2-methyl-2-(methylsulfonyl)-4-{2-oxo-4-[(E)-2-phenylvinyl]pyridin-1(2H)-yl}butanamide] | 64 | 0.5 | 2
2 | C[C@@](CCn1ccc(CCc2ccccc2)cc1=O)(C(=O)NO)S(C)(=O)=O [Example 3, (2R)-N-hydroxy-2-methyl-2-(methylsulfonyl)-4-[2-oxo-4-(2-phenylethyl)pyridin-1(2H)-yl]butanamide] | 64 | 1 | 4
3 | C[C@@](CCn1ccc(-c2ccc([C@H]3C[C@@H](O)C3)cc2)cc1=O)(C(=O)NO)S(C)(=O)=O [Example 5, (2R)-N-hydroxy-4-{4-[4-(cis-3-hydroxycyclobutyl)phenyl]-2-oxopyridin-1(2H)-yl}-2-methyl-2-(methylsulfonyl)butanamide] | > 64 | 4 | 2
4 | C[C@@](CCn1ccc(-c2ccc([C@H]3C[C@H](O)C3)cc2)cc1=O)(C(=O)NO)S(C)(=O)=O [Example 6, (2R)-N-hydroxy-4-{4-[4-(trans-3-hydroxycyclobutyl)phenyl]-2-oxopyridin-1(2H)-yl}-2-methyl-2-(methylsulfonyl)butanamide] | > 64 | 4 | 4
5 | C[C@@](CCn1ccc(-c2ccc(OC3CCC(O)CC3)cc2)cc1=O)(C(=O)NO)S(C)(=O)=O (stereo partly drawn) [Example 7, (2R)-N-hydroxy-4-[4-{4-[(4-hydroxycyclohexyl)oxy]phenyl}-2-oxopyridin-1(2H)-yl]-2-methyl-2-(methylsulfonyl)butanamide] | 64 | 1 | 2
6 | C[C@@](CCn1ccc(-c2ccc(OC[C@H]3CC[C@@H](O)CC3)cc2)cc1=O)(C(=O)NO)S(C)(=O)=O [Example 8, (2R)-N-hydroxy-4-[4-{4-[(cis-4-hydroxycyclohexyl)methoxy]phenyl}-2-oxopyridin-1(2H)-yl]-2-methyl-2-(methylsulfonyl)butanamide] | > 64 | 0.5 | 1
7 | C[C@@](CCn1ccc(-c2ccc(OC[C@H]3CC[C@H](O)CC3)cc2)cc1=O)(C(=O)NO)S(C)(=O)=O [Example 9, (2R)-N-hydroxy-4-[4-{4-[(trans-4-hydroxycyclohexyl)methoxy]phenyl}-2-oxopyridin-1(2H)-yl]-2-methyl-2-(methylsulfonyl)butanamide] | 32 | 0.25 | 1
8 | C[C@@](CCn1ccc(-c2ccc(OC[C@H]3CC[C@H](O)CC3)cc2F)cc1=O)(C(=O)NO)S(C)(=O)=O [Example 10, (2R)-4-[4-{2-fluoro-4-[(trans-4-hydroxycyclohexyl)methoxy]phenyl}-2-oxopyridin-1(2H)-yl]-N-hydroxy-2-methyl-2-(methylsulfonyl) butanamide] | > 64 | 0.25 | 1
9 | CC1(O)CCC(Oc2ccc(-c3ccn(CC[C@](C)(C(=O)NO)S(C)(=O)=O)c(=O)c3)cc2)CC1 (stereo partly drawn) [Example 10-A, (2R)-N-hydroxy-4-[4-{4-[(4-hydroxy-4-methylcyclohexyl)oxy]phenyl}-2-oxopyridin-1(2H)-yl]-2-methyl-2-(methylsulfonyl)butanamide] | > 64 | 0.25 | 1
10 | CC1(O)CC(COc2ccc(-c3ccn(CC[C@](C)(C(=O)NO)S(C)(=O)=O)c(=O)c3)cc2)C1 (stereo partly drawn) [Example 10-B, (2R)-N-hydroxy-4-[4-{4-[(3-hydroxy-3-methylcyclobutyl)methoxy]phenyl}-2-oxopyridin-1(2H)-yl]-2-methyl-2-(methylsulfonyl)butanamide] | > 64 | 0.5 | 1
11 | C[C@@](CCn1ccc(-c2ccc(OCCCC#N)cc2)cc1=O)(C(=O)NO)S(C)(=O)=O [Example 10-C, (2R)-4-{4-[4-(3-cyanopropoxy)phenyl]-2-oxopyridin-1(2H)-yl}-N-hydroxy-2-methyl-2-(methylsulfonyl)butanamide] | > 64 | 0.5 | 1
12 | C[C@@](CCn1ccc(-c2ccc(OCC3CC(CO)C3)cc2)cc1=O)(C(=O)NO)S(C)(=O)=O (stereo partly drawn) [Example 10-D, (2R)-N-hydroxy-4-[4-(4-{[3-(hydroxymethyl)cyclobutyl]methoxy}phenyl)-2-oxopyridin-1(2H)-yl]-2-methyl-2-(methylsulfonyl)butanamide] | > 64 | 0.25 | 1
13 | CC(C)(O)CCCOc1ccc(-c2ccn(CCC(C)(C(=O)NO)S(C)(=O)=O)c(=O)c2)cc1 (stereo not drawn) [Example 10-E, N-hydroxy-4-[4-{4-[(4-hydroxy-4-methylpentyl)oxy]phenyl}-2-oxopyridin-1(2H)-yl]-2-methyl-2-(methylsulfonyl)butanamide] | > 64 | 0.5 | 2
14 | CC(CCn1ccc(-c2ccc(OC3CC(CO)C3)cc2)cc1=O)(C(=O)NO)S(C)(=O)=O (stereo not drawn) [Example 10-F, N-hydroxy-4-[4-(4-{[3-(hydroxymethyl)cyclobutyl]oxy}phenyl)-2-oxopyridin-1(2H)-yl]-2-methyl-2-(methylsulfonyl)butanamide] | 64 | 0.5 | 2
15 | CC1(O)CCC(Oc2ccc(-c3ccn(CC[C@](C)(C(=O)NO)S(C)(=O)=O)c(=O)c3)cc2)CC1 (stereo partly drawn) [Example 10-G, (2R)-N-hydroxy-4-[4-{4-[(4-hydroxy-4-methylcyclohexyl)oxy]phenyl}-2-oxopyridin-1(2H)-yl]-2-methyl-2-(methylsulfonyl)butanamide] | 64 | 0.5 | 2
16 | CC(C)(O)C1CC(Oc2ccc(-c3ccn(CC[C@](C)(C(=O)NO)S(C)(=O)=O)c(=O)c3)cc2)C1 (stereo partly drawn) [Example 10-H, (2R)-N-hydroxy-4-[4-(4-{[3-(1-hydroxy-1-methylethyl)cyclobutyl]oxy}phenyl)-2-oxopyridin-1(2H)-yl]-2-methyl-2-(methylsulfonyl)butanamide] | > 64 | 1 | 2
17 | CC1(O)CCC(Oc2ccc(-c3ccn(CC[C@](C)(C(=O)NO)S(C)(=O)=O)c(=O)c3)cc2F)CC1 (stereo partly drawn) [Example 10-I, (2R)-4-[4-{3-fluoro-4-[(4-hydroxy-4-methylcyclohexyl)oxy]phenyl}-2-oxopyridin-1(2H)-yl]-N-hydroxy-2-methyl-2-(methylsulfonyl)butanamide] | > 64 | 0.5 | 2
18 | CC(C)(O)COc1ccc(-c2ccn(CCC(C)(C(=O)NO)S(C)(=O)=O)c(=O)c2)cc1 (stereo not drawn) [Example 10-J, N-hydroxy-4-{4-[4-(2-hydroxy-2-methylpropoxy)phenyl]-2-oxopyridin-1(2H)-yl}-2-methyl-2-(methylsulfonyl)butanamide] | > 64 | 4 | 8
19 | CC(C)(O)C(O)CCOc1ccc(-c2ccn(CC[C@](C)(C(=O)NO)S(C)(=O)=O)c(=O)c2)cc1 (stereo partly drawn) [Example 10-K, (2R)-4-[4-{4-[(3,4-dihydroxy-4-methylpentyl)oxy]phenyl}-2-oxopyridin-1(2H)-yl]-N-hydroxy-2-methyl-2-(methylsulfonyl)butanamide] | > 64 | 8 | 8
20 | C[C@@](CCn1ccc(-c2ccc(OC[C@H]3CC[C@@H](O)CC3)cc2F)cc1=O)(C(=O)NO)S(C)(=O)=O [Example 10-L, (2R)-4-[4-{2-fluoro-4-[(cis-4-hydroxycyclohexyl)methoxy]phenyl}-2-oxopyridin-1(2H)-yl]-N-hydroxy-2-methyl-2-(methylsulfonyl)butanamide] | > 64 | 0.25 | 1
21 | C[C@@](CCn1ccc(-c2ccccc2)cc1=O)(C(=O)NO)S(C)(=O)=O [Example 11, (2R)-N-Hydroxy-2-methyl-2-(methylsulfonyl)-4-(2-oxo-4-phenylpyridin-1(2H)-yl)butanamide] | 64 | 8 | 1
22 | Cc1c(O)ccc(-c2ccn(CC[C@](C)(C(=O)NO)S(C)(=O)=O)c(=O)c2)c1F [Example 12, (2R)-4-[4-(2-fluoro-4-hydroxy-3-methylphenyl)-2-oxopyridin-1(2H)-yl]-N-hydroxy-2-methyl-2-(methylsulfonyl)butanamide] | > 64 | 16 | 16
23 | Cc1ccc(-c2ccn(CC[C@](C)(C(=O)NO)S(C)(=O)=O)c(=O)c2)c(F)c1 [Example 13, (2R)-4-[4-(2-fluoro-4-methylphenyl)-2-oxopyridin-1(2H)-yl]-N-hydroxy-2-methyl-2-(methylsulfonyl)butanamide] | > 64 | 0.5 | 0.5
24 | C[C@@](CCn1ccc(-c2cccc(F)c2F)cc1=O)(C(=O)NO)S(C)(=O)=O [Example 14, (2R)-4-[4-(2,3-difluorophenyl)-2-oxopyridin-1(2H)-yl]-N-hydroxy-2-methyl-2-(methylsulfonyl)butanamide] | > 64 | 0.5 | 0.5
